# Values quoted from earlier work in patent publication US20130225581A1, “NITROGEN-CONTAINING AROMATIC HETEROCYCLIC DERIVATIVE” (KYOWA HAKKO KIRIN CO., LTD, priority 2010, published 2013).
# System: human gastric cancer tumor models
smiles,measurement,value
COc1cc2c(Oc3ccc4[nH]c(C)cc4c3F)ncnc2cc1OCCCN1CCCC1 [AZD2171],antitumor activities,show antitumor activities
COc1cc2nccc(Oc3ccc(NC(=O)NC4CC4)c(Cl)c3)c2cc1C(N)=O [4-[3-chloro-4-(cyclopropylaminocarbonyl)aminophenoxy]-7-methoxy-6-quinolinecarboxamide],antitumor activities,show antitumor activities
